{"source": "paper PMC7377239", "about": "“Cardiovascular Effects of Polychlorinated Biphenyls and Their Major Metabolites” (Environmental Health Perspectives, 2020)", "key": {"[1]": {"system": "iCell endothelial cells (human iPSC-derived ECs)", "experiment": "Tube formation (tubulogenesis) assay in iCell endothelial cells, 18 h", "format": "cell-based", "conditions": "Homo sapiens, Endothelial cell, 18 hr; for activity at 0.1 µM: 0.10 µM", "method_in_brief": "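Tube formation was measured by calcein AM imaging after overnight compound exposure (37°C, 0.5% DMSO vehicle) of human iPSC-derived ECs, 7,500/well, on reduced-growth-factor Geltrex in starvation medium. Vehicle-normalized data fitted to four-parameter logistic; POD set at one vehicle SD; without response, 100 μM taken as NOAEL.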"}, "[2]": {"system": "HUVECs", "experiment": "High-content imaging cytotoxicity in HUVECs, 24 h", "format": "cell-based, human", "conditions": "Homo sapiens, HUVEC, 24 h; for viability at 0.01 µM / activity at 0.01 µM / viability at 0.1 µM / activity at 0.1 µM / viability at 1 µM / activity at 1 µM / viability at 10 µM / activity at 10 µM / viability at 100 µM / activity at 100 µM: 0.00 µM = 100.00; for viability at 0.1 µM / activity at 0.1 µM: 0.10 µM", "method_in_brief": "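Point-of-departure values come from four-parameter logistic fits of vehicle-normalized (0.5% DMSO) imaging readouts, cutoff one SD of vehicle means, 100μM where no concentration–response. Cells: HUVEC monolayers, passages 1–5, treated 24 h at 37°C, 5% CO2, then Hoechst 33342/MitoTracker Orange/calcein AM stained, imaged at 10×.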"}, "[3]": {"conditions": "iPSC-EC tube formation, 0.00 µM control = 100.00, read-out: endo.mtl.18hr"}, "[4]": {"conditions": "iPSC-EC tube formation, 0.00 µM control = 100.00, read-out: endo.tlps.18hr"}, "[5]": {"conditions": "iPSC-EC tube formation, 0.00 µM control = 100.00, read-out: endo.tta.18hr"}, "[6]": {"conditions": "iPSC-EC tube formation, 0.00 µM control = 100.00, read-out: endo.ttl.18hr"}, "[7]": {"conditions": "HUVECs, 24 hr, read-out: huvec.cyto.24hr"}, "[8]": {"conditions": "HUVECs, 24 hr, read-out: huvec.mito.24hr"}, "[9]": {"conditions": "HUVECs, 24 hr, read-out: huvec.mitoint.24hr"}, "[10]": {"conditions": "HUVECs, 24 hr, read-out: huvec.nma.24hr"}, "[11]": {"conditions": "HUVECs, 24 hrs, read-out: huvec.tc.24hrs"}}, "note": "Read-outs that look alike come from different tables or passages of the source.", "data": [{"smiles": "COc1ccc(-c2cccc(Cl)c2)cc1Cl", "note": "[4-OMe PCB11]", "values": [{"measurement": "activity at 0.01 µM", "setting": "[1]; [3]", "result": 115, "unit": "%"}, {"measurement": "activity at 0.01 µM", "setting": "[1]; [4]", "result": 108, "unit": "%"}, {"measurement": "activity at 0.01 µM", "setting": "[1]; [5]", "result": 168, "unit": "%"}, {"measurement": "activity at 0.01 µM", "setting": "[1]; [6]", "result": 169, "unit": "%"}, {"measurement": "activity at 0.1 µM", "setting": "[1]; [3]", "result": 114, "unit": "%"}, {"measurement": "activity at 0.1 µM", "setting": "[1]; [4]", "result": 108, "unit": "%"}, {"measurement": "activity at 0.1 µM", "setting": "[1]; [5]", "result": 134, "unit": "%"}, {"measurement": "activity at 0.1 µM", "setting": "[1]; [6]", "result": 137, "unit": "%"}, {"measurement": "activity at 1 µM", "setting": "[1]; [3]", "result": 113, "unit": "%"}, {"measurement": "activity at 1 µM", "setting": "[1]; [4]", "result": 122, "unit": "%"}, {"measurement": "activity at 1 µM", "setting": "[1]; [5]", "result": 139, "unit": "%"}, {"measurement": "activity at 1 µM", "setting": "[1]; [6]", "result": 145, "unit": "%"}, {"measurement": "activity at 10 µM", "setting": "[1]; [3]", "result": 95.5, "unit": "%"}, {"measurement": "activity at 10 µM", "setting": "[1]; [4]", "result": 82.3, "unit": "%"}, {"measurement": "activity at 10 µM", "setting": "[1]; [5]", "result": 105, "unit": "%"}, {"measurement": "activity at 10 µM", "setting": "[1]; [6]", "result": 106, "unit": "%"}, {"measurement": "activity at 100 µM", "setting": "[1]; [3]", "result": 88.4, "unit": "%"}, {"measurement": "activity at 100 µM", "setting": "[1]; [4]", "result": 63.4, "unit": "%"}, {"measurement": "activity at 100 µM", "setting": "[1]; [5]", "result": 101, "unit": "%"}, {"measurement": "activity at 100 µM", "setting": "[1]; [6]", "result": 100, "unit": "%"}, {"measurement": "minimal effective concentration", "setting": "[1]; iPSC-EC tube formation, top concentration 100.00 µM, read-out: endo.mtl.18hr POD", "result": 100, "unit": "µM"}, {"measurement": "minimal effective concentration", "setting": "[1]; iPSC-EC tube formation, top concentration 100.00 µM, read-out: endo.tlps.18hr POD", "result": 28.4, "unit": "µM"}, {"measurement": "minimal effective concentration", "setting": "[1]; iPSC-EC tube formation, top concentration 100.00 µM, read-out: endo.tta.18hr POD", "result": 0.00169, "unit": "µM"}, {"measurement": "minimal effective concentration", "setting": "[1]; iPSC-EC tube formation, top concentration 100.00 µM, read-out: endo.ttl.18hr POD", "result": 0.00197, "unit": "µM"}, {"measurement": "viability at 0.01 µM", "setting": "[2]; [7]", "result": 96.4, "unit": "%"}, {"measurement": "activity at 0.01 µM", "setting": "[2]; [8]", "result": 94.6, "unit": "%"}, {"measurement": "activity at 0.01 µM", "setting": "[2]; [9]", "result": 95.4, "unit": "%"}, {"measurement": "activity at 0.01 µM", "setting": "[2]; [10]", "result": 96.3, "unit": "%"}, {"measurement": "viability at 0.1 µM", "setting": "[2]; [7]", "result": 98.3, "unit": "%"}, {"measurement": "activity at 0.1 µM", "setting": "[2]; [8]", "result": 98.5, "unit": "%"}, {"measurement": "activity at 0.1 µM", "setting": "[2]; [9]", "result": 106, "unit": "%"}, {"measurement": "activity at 0.1 µM", "setting": "[2]; [10]", "result": 101, "unit": "%"}, {"measurement": "viability at 1 µM", "setting": "[2]; [7]", "result": 101, "unit": "%"}, {"measurement": "activity at 1 µM", "setting": "[2]; [8]", "result": 100, "unit": "%"}, {"measurement": "activity at 1 µM", "setting": "[2]; [9]", "result": 103, "unit": "%"}, {"measurement": "activity at 1 µM", "setting": "[2]; [10]", "result": 100, "unit": "%"}, {"measurement": "viability at 10 µM", "setting": "[2]; [7]", "result": 89.7, "unit": "%"}, {"measurement": "activity at 10 µM", "setting": "[2]; [8]", "result": 86.4, "unit": "%"}, {"measurement": "activity at 10 µM", "setting": "[2]; [9]", "result": 95.6, "unit": "%"}, {"measurement": "activity at 10 µM", "setting": "[2]; [10]", "result": 92.7, "unit": "%"}, {"measurement": "viability at 100 µM", "setting": "[2]; [7]", "result": 56.3, "unit": "%"}, {"measurement": "activity at 100 µM", "setting": "[2]; [8]", "result": 44, "unit": "%"}, {"measurement": "activity at 100 µM", "setting": "[2]; [9]", "result": 65.8, "unit": "%"}, {"measurement": "activity at 100 µM", "setting": "[2]; [10]", "result": 73.1, "unit": "%"}, {"measurement": "minimal effective concentration", "setting": "[2]; HUVECs, 24 hr, top concentration 100.00 µM, read-out: huvec.cyto.24hr POD", "result": 7.59, "unit": "µM"}, {"measurement": "minimal effective concentration", "setting": "[2]; HUVECs, 24 hr, top concentration 100.00 µM, read-out: huvec.mito.24hr POD", "result": 6.19, "unit": "µM"}, {"measurement": "minimal effective concentration", "setting": "[2]; HUVECs, 24 hr, top concentration 100.00 µM, read-out: huvec.mitoint.24hr POD", "result": 16, "unit": "µM"}, {"measurement": "minimal effective concentration", "setting": "[2]; HUVECs, 24 hr, top concentration 100.00 µM, read-out: huvec.nma.24hr POD", "result": 6.39, "unit": "µM"}, {"measurement": "viability at 0.01 µM", "setting": "[2]; [11]", "result": 96.4, "unit": "%"}, {"measurement": "viability at 0.1 µM", "setting": "[2]; [11]", "result": 98.4, "unit": "%"}, {"measurement": "viability at 1 µM", "setting": "[2]; [11]", "result": 101, "unit": "%"}, {"measurement": "viability at 10 µM", "setting": "[2]; [11]", "result": 89.7, "unit": "%"}, {"measurement": "viability at 100 µM", "setting": "[2]; [11]", "result": 56.4, "unit": "%"}, {"measurement": "minimal effective concentration", "setting": "[2]; HUVECs, 24 hrs, top concentration 100.00 µM, read-out: huvec.tc.24hrs POD", "result": 7.59, "unit": "µM"}]}, {"smiles": "Clc1ccc(Cl)c(-c2cc(Cl)ccc2Cl)c1", "note": "[PCB 52, 2,2′,5,5′-tetrachlorobiphenyl]", "values": [{"measurement": "minimal effective concentration", "setting": "[1]; endothelial cells (endo), tube formation mtl, read-out: POD endo.mtl.18hr", "result": 79.8, "unit": "µM"}, {"measurement": "minimal effective concentration", "setting": "[1]; endothelial cells (endo), tube formation tlps, read-out: POD endo.tlps.18hr", "result": 100, "unit": "µM"}, {"measurement": "minimal effective concentration", "setting": "[1]; endothelial cells (endo), tube formation tta, read-out: POD endo.tta.18hr", "result": 100, "unit": "µM"}, {"measurement": "minimal effective concentration", "setting": "[1]; endothelial cells (endo), tube formation ttl, read-out: POD endo.ttl.18hr", "result": 100, "unit": "µM"}, {"measurement": "minimal effective concentration", "setting": "[2]; cyto, 24 hr, read-out: POD huvec.cyto.24hr", "result": 0.67, "unit": "µM"}, {"measurement": "minimal effective concentration", "setting": "[2]; mito, 24 hr, read-out: POD huvec.mito.24hr", "result": 0.57, "unit": "µM"}, {"measurement": "minimal effective concentration", "setting": "[2]; mitoint, 24 hr, read-out: POD huvec.mitoint.24hr", "result": 6.01, "unit": "µM"}, {"measurement": "minimal effective concentration", "setting": "[2]; nma, 24 hr, read-out: POD huvec.nma.24hr", "result": 4.97, "unit": "µM"}, {"measurement": "minimal effective concentration", "setting": "[2]; tc, 24 hr, read-out: POD huvec.tc.24hr", "result": 0.67, "unit": "µM"}]}]}
